# In patent US20110166112A1, “METHOD FOR STIMULATING PLATELET PRODUCTION” (Eisai, Inc., priority 2009, published 2011):
# System: subjects with chronic ITP
# Experiment: Treatment-emergent bleeding events (WHO Bleeding Scale; Kaplan-Meier time to first bleeding event)
# Assay type: in vivo, human
# Source text: As used herein, the term “bleeding” refers to any bleeding, as measured by the World Health Organization's Bleeding Scale (e.g., Grade 0=no bleeding; Grade 1=petechial bleeding; Grade 2=clinical significant mild blood loss; […]=gross (severe) blood loss, requiring transfusion; Grade 5=debilitating blood loss, retinal or cerebral associated with fatality). In some embodiments, the bleeding may be due to a low platelet count.
# Bleeding Events. During the combined study period, 43 (67.2%) of the 64 subjects reported a treatment-emergent bleeding event (Table 23). Gingival bleeding was the most frequently reported bleeding event, occurring in 7 subjects (10.9%). All were grade 1 (n=6) or grade 2 (n=1) and none were considered to be related to study drug.
# Using Kaplan-Meier methods, the estimated median time to the first bleeding event was 8 weeks (95% CI: 4.7-15.3 weeks) after initiation of E5501 (FIG. 5).
# [1] = Lower ⅓ dose (2.5-<8.85 mg), N=22
# [2] = Middle ⅓ dose (≧8.85-<13.5 mg), N=22
# [3] = Upper ⅓ dose (≧13.5-≦25.7 mg), N=20
structure (smiles),measurement,setting,value
"O=C(Nc1nc(-c2cc(Cl)cs2)c(N2CCN(C3CCCCC3)CC2)s1)c1cnc(N2CCC(C(=O)O)CC2)c(Cl)c1 [E5501, 1-(3-chloro-5-{[4-(4-chlorothiophen-2-yl)-5-(4-cyclohexylpiperazin-1-yl)thiazol-2-yl]carbamoyl}pyridine-2-yl)piperidine-4-carboxylic acid]","Any TE bleeding event, % of subjects","E5501 Total, N=64",(67.2) %
same,"Any TE bleeding event, n of subjects","E5501 Total, N=64",43
same,"TE bleeding event, highest toxicity Grade 1, % of subjects","E5501 Total, N=64",(45.3) %
same,"TE bleeding event, highest toxicity Grade 1, n of subjects","E5501 Total, N=64",29
same,"TE bleeding event, highest toxicity Grade 2, % of subjects","E5501 Total, N=64",(17.2) %
same,"TE bleeding event, highest toxicity Grade 2, n of subjects","E5501 Total, N=64",11
same,"TE bleeding event, highest toxicity Grade 3, % of subjects","E5501 Total, N=64",(4.7) %
same,"TE bleeding event, highest toxicity Grade 3, n of subjects","E5501 Total, N=64",3
same,"TE bleeding event, highest toxicity Grade 4, % of subjects","E5501 Total, N=64",(1.6) %
same,"TE bleeding event, highest toxicity Grade 4, n of subjects","E5501 Total, N=64",1
same,"TE bleeding event, highest toxicity Grade 5, n of subjects","E5501 Total, N=64",0
same,estimated median time to the first bleeding event,"Kaplan-Meier, after initiation of E5501, 95% CI: 4.7-15.3 weeks",8 weeks
same,"Any TE bleeding event, % of subjects",[1],(68.2) %
same,"Any TE bleeding event, n of subjects",[1],15
same,"TE bleeding event, highest toxicity Grade 1, % of subjects",[1],(50.0) %
same,"TE bleeding event, highest toxicity Grade 1, n of subjects",[1],11
same,"TE bleeding event, highest toxicity Grade 2, % of subjects",[1],(9.1) %
same,"TE bleeding event, highest toxicity Grade 2, n of subjects",[1],2
same,"TE bleeding event, highest toxicity Grade 3, % of subjects",[1],(4.5) %
same,"TE bleeding event, highest toxicity Grade 3, n of subjects",[1],1
same,"TE bleeding event, highest toxicity Grade 4, % of subjects",[1],(4.5) %
same,"TE bleeding event, highest toxicity Grade 4, n of subjects",[1],1
same,"TE bleeding event, highest toxicity Grade 5, n of subjects",[1],0
same,"Any TE bleeding event, % of subjects",[2],(63.6) %
same,"Any TE bleeding event, n of subjects",[2],14
same,"TE bleeding event, highest toxicity Grade 1, % of subjects",[2],(40.9) %
same,"TE bleeding event, highest toxicity Grade 1, n of subjects",[2],9
same,"TE bleeding event, highest toxicity Grade 2, % of subjects",[2],(13.6) %
same,"TE bleeding event, highest toxicity Grade 2, n of subjects",[2],3
same,"TE bleeding event, highest toxicity Grade 3, % of subjects",[2],(9.1) %
same,"TE bleeding event, highest toxicity Grade 3, n of subjects",[2],2
same,"TE bleeding event, highest toxicity Grade 4, n of subjects",[2],0
same,"TE bleeding event, highest toxicity Grade 5, n of subjects",[2],0
same,"Any TE bleeding event, % of subjects",[3],70.0%
same,"Any TE bleeding event, n of subjects",[3],14
same,"TE bleeding event, highest toxicity Grade 1, % of subjects",[3],40.0%
same,"TE bleeding event, highest toxicity Grade 1, n of subjects",[3],8
same,"TE bleeding event, highest toxicity Grade 2, % of subjects",[3],30.0%
same,"TE bleeding event, highest toxicity Grade 2, n of subjects",[3],6
same,"TE bleeding event, highest toxicity Grade 3, n of subjects",[3],0
same,"TE bleeding event, highest toxicity Grade 4, n of subjects",[3],0
same,"TE bleeding event, highest toxicity Grade 5, n of subjects",[3],0
same,"subjects with a clinically significant, grade 3 or 4 bleeding event",combined study period,Four
same,subjects reporting a treatment-emergent bleeding event,"combined study period, 64 subjects",67.2%
